We go through four compounds from patent US20050129610A1, “Imaging agents and methods of imaging alpha7-nicotinic cholinergic receptor” (Johns Hopkins University, priority 2003, published 2005).

The term pKi denotes the negative decadic logarithm of the Ki, by convention in mol/L.

pKi: −log10 of the molar value. Like-named read-outs stand apart in the source and are kept apart here.

The target in one data set is rat α7 nAChR (Rattus norvegicus, UniProt Q05941). Kind of data set: Receptor binding assay, rat α7 nAChR. The protocol:
(§1) Receptor Binding Assays. The affinities of 1-4 for the rat α4β2 and α7 nAChRs were determined as described previously (Mullen, et al., J. Med. Chem.; 2000;43(22):4045-50). Affinities for the rat 5-HT3 receptor were also determined as described previously (Macor, et al., Bioorg. Med. Chem. Lett. 2001;11(3):319-21). All Ki determinations were done using 5-7 concentrations. […] There was a wide margin in selectivity compared to the α4β2 receptor subtype. Also included are the relative binding affinities to the 5-HT3 receptor, which has high sequence homology to the α7-nAChR.

The target in another data set is rat α4β2 nAChR (Rattus norvegicus, UniProt P09483+P12390). The data set can be described thus: Receptor binding assay, rat α4β2 nAChR (selectivity). The settings on record: binding selectivity vs rat α4β2 nAChR. The protocol: as §1
Chain of rat α4β2 nAChR (P09483 31-630): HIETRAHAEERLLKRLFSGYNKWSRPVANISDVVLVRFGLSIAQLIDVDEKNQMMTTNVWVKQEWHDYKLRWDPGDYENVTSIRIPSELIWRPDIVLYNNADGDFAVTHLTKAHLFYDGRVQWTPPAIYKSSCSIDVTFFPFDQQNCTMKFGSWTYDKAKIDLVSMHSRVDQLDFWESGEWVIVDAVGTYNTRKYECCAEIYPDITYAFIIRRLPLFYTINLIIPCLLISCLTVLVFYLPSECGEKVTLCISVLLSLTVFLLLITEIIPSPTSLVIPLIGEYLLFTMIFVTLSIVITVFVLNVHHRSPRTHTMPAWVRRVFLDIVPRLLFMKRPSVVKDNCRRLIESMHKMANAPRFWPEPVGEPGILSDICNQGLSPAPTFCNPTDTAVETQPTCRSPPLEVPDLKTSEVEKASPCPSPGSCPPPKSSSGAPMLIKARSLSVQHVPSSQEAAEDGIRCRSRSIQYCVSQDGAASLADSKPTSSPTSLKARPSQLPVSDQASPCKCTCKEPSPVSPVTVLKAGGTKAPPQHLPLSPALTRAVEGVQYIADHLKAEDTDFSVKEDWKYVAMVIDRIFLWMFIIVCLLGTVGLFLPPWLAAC
Chain of rat α4β2 nAChR (P12390 25-500): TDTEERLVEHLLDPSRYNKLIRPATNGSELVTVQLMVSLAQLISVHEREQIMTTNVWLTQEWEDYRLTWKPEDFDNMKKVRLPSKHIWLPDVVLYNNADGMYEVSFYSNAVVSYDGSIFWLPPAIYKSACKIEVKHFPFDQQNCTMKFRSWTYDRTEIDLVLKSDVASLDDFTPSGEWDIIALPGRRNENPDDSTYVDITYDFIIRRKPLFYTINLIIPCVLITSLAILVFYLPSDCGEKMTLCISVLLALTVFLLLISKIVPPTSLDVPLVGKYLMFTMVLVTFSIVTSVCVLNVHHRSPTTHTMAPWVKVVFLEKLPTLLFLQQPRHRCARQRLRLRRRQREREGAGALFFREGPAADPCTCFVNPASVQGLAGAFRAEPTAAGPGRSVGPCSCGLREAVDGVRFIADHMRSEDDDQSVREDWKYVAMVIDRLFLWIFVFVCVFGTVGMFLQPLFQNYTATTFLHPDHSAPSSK
In a further data set the target is T1, rat 5-HT3 receptor (Rattus norvegicus, UniProt P35563).
T1 sequence (P35563 24-483): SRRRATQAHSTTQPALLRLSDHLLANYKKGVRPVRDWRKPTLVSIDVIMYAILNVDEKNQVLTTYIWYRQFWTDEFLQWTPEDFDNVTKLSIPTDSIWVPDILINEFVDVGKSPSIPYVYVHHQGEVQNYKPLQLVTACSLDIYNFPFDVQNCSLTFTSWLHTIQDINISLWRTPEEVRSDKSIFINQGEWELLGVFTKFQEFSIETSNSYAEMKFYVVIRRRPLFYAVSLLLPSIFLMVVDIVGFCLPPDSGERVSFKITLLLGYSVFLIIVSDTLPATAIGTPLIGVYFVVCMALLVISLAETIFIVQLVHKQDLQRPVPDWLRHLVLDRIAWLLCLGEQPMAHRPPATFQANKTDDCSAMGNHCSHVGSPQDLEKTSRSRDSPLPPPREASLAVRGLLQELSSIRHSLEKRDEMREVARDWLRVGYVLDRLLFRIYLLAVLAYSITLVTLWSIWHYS
The data set can be described thus: Receptor binding assay, rat 5-HT3 receptor (selectivity). Conditions: binding selectivity vs rat 5-HT3 receptor. The procedure: as §1

Data set [1] in a line: Rodent in vivo biodistribution (brain kinetics). Also noted: species or system male CD-1 mice. The settings on record: for Brain distribution, CB: cerebellum; for Brain distribution, CB / Brain distribution, CTX / Brain distribution, HIPP / Brain distribution, HYPO / Brain distribution, STR / Brain distribution, THAL: mice; for Brain distribution, CTX: cortex; for Brain distribution, HIPP: hippocampus; for Brain distribution, HYPO: hypothalamus; for Uptake within the brain (in words): i.v. radiotracer; for Brain distribution, STR: striatum; for Brain distribution, THAL: thalamus; for Uptake/retention in target tissue (hippocampus): mouse hippocampus vs other brain substructures, FIG. 1 / FIG. 3. The procedure:
(§2) Rodent In Vivo Biodistribution Studies of 1-4. Male CD-1 mice weighing between 20 and 25 g received an injection of 3.7 MBq (100 μCi) for 1 and 2 and 0.67 MBq ([…]) for 3 and 4 through the tail vein. The corresponding amounts administered were 0.2-0.8 μg/kg for 1 and 2 and 0.01-0.02 μg/kg for 3 and 4. For kinetic studies of 1-4, the mice were killed by cervical dislocation at 5, 15, 30 and 60 min after intravenous injection of radiotracer in 200 μL saline vehicle. The brains were removed and placed on ice, and the cerebellum, olfactory bulb, hypothalamus, hippocampus, striatum, cortex, brain stem and thalamus were harvested. A 45 min time point was obtained for 2 and one at 120 min for 3 and 4. The tissue samples were weighed and their radioactivity determined in an automated □ counter (1282 Compugamma CS; Pharmacia/LKB Nuclear Inc., Gaithersburg, Md.). The radioactivity concentration in aliquots of the injected tracer were determined along with the samples and served as standards for the calculation of percentage injected dose per gram of tissue (% ID/g). To assess binding specificity, subgroups of mice were treated with 10 mg/kg nicotine (for D or increasing doses of unlabeled 4 (0.01-10 mg/kg) 5 min prior to injection of radiotracer. Mice were killed at 30 and 60 min after blockade for 3 and 4, respectively.

Another data set deals with T2, α7-nAChR (Mus musculus, UniProt P49582).
T2 construct: Male CD-1 mice weighing between 20 and 25 g received an injection; from tissue; host or cells: brain of living male CD-1 mice (hippocampus, cortex and other regions)
T2 sequence (P49582 23-502): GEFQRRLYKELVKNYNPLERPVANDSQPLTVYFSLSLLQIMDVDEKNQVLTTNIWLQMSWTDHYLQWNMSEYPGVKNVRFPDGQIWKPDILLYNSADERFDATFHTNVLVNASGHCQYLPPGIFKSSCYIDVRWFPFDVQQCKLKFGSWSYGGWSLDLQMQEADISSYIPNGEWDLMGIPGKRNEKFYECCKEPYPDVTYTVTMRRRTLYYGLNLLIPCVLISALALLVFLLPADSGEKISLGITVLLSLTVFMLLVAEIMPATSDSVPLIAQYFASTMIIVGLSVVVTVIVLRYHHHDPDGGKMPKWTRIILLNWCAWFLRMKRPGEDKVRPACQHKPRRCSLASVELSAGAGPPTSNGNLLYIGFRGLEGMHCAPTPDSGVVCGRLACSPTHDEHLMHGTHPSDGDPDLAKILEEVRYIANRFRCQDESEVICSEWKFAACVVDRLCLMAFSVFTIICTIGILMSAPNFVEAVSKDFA
The data set can be described thus: In vivo binding specificity (receptor blockade) study. The arrangement: species or system male CD-1 mice. The procedure: as §2

Where [2] appears, read: rat α7 nAChR, nonradioactive analogs, 5-7 concentrations, read-out: Ki.

Chain of rat α7 nAChR (Q05941 23-502): as the sequence (P49582 23-502) above, with T402A counted along it

Take `O=C(NC1CN2CCC1CC2)c1ccc(Br)cc1` (stereo not drawn) [3 (precursor)]: at rat α7 nAChR (setting [2]), the pKi is 7.74. The α7/α4 on rat α4β2 nAChR was 36000 (1). The α7/5-HT3 at rat 5-HT3 receptor was 280 (1).
Take `[11CH3]Sc1ccc(C(=O)NC2CN3CCC2CC3)cc1` [Compound 2, N—(R)-1-aza-bicyclo[2.2.2]oct-3-yl-4-[^11C]methylsulfanyl-benzamide]: the negative-log Ki (pKi) at rat α7 nAChR is 8.24. On rat α4β2 nAChR, the α7/α4 is given as 14,000 (1). The α7/5-HT3 on rat 5-HT3 receptor is recorded as 1100 (1). In data set [1] (5 min post i.v. injection), the “Brain distribution, CB” value stood at 0.23 ± 0.01 % ID/g; the “Brain distribution, CTX” value is on record as 0.16 ± 0.04 % ID/g; the “Brain distribution, HIPP” value worked out at 0.15 ± 0.01 % ID/g; the “Brain distribution, HYPO” value turned out to be 0.30 ± 0.02 % ID/g. Further, in data set [1] (5 min post i.v. injection), the “Brain distribution, STR” value was 0.22 ± 0.06 % ID/g and the “Brain distribution, THAL” value is 0.18 ± 0.02 % ID/g. Moreover, in data set [1] (15 min post i.v. injection), the “Brain distribution, CB” value came to 0.26 ± 0.04 % ID/g; the “Brain distribution, CTX” value is recorded as 0.17 ± 0.03 % ID/g; the “Brain distribution, HIPP” value was found to be 0.24 ± 0.04 % ID/g; the “Brain distribution, HYPO” value was found to be 0.55 ± 0.05 % ID/g. In data set [1] (15 min post i.v. injection), the “Brain distribution, STR” value is recorded as 0.37 ± 0.05 % ID/g and the “Brain distribution, THAL” value stood at 0.26 ± 0.09 % ID/g. In data set [1] (30 min post i.v. injection), the “Brain distribution, CB” value worked out at 0.14 ± 0.03 % ID/g; the “Brain distribution, CTX” value is 0.14 ± 0.05 % ID/g; the “Brain distribution, HIPP” value stood at 0.14 ± 0.03 % ID/g; the “Brain distribution, HYPO” value stood at 0.22 ± 0.04 % ID/g. In data set [1] (30 min post i.v. injection), the “Brain distribution, STR” value worked out at 0.16 ± 0.03 % ID/g and the “Brain distribution, THAL” value worked out at 0.13 ± 0.03 % ID/g. Also, in data set [1] (45 min post i.v. injection), the “Brain distribution, CB” value stood at 0.09 ± 0.01 % ID/g; the “Brain distribution, CTX” value was 0.10 ± 0.02 % ID/g; the “Brain distribution, HIPP” value came to 0.13 ± 0.02 % ID/g; the “Brain distribution, HYPO” value turned out to be 0.22 ± 0.09 % ID/g. In data set [1] (45 min post i.v. injection), the “Brain distribution, STR” value stood at 0.15 ± 0.05 % ID/g and the “Brain distribution, THAL” value was determined as 0.10 ± 0.01 % ID/g. In data set [1] (60 min post i.v. injection), the “Brain distribution, CB” value was determined as 0.08 ± 0.01 % ID/g; the “Brain distribution, CTX” value amounted to 0.10 ± 0.02 % ID/g; the “Brain distribution, HIPP” value turned out to be 0.12 ± 0.02 % ID/g; the “Brain distribution, HYPO” value is given as 0.27 ± 0.05 % ID/g. Besides, in data set [1] (60 min post i.v. injection), the “Brain distribution, STR” value is listed as 0.18 ± 0.05 % ID/g and the “Brain distribution, THAL” value was 0.14 ± 0.03 % ID/g. The “Regional selectivity of brain uptake” value in data set [1] (mouse brain, all time points, in words) is “no regional selectivity”. The “Uptake within the brain (in words)” value in data set [1] (mouse brain) is recorded as “limited uptake”.
For `O=C(NC1CN2CCC1CC2)c1ccc([125I])cc1` [Compound 3, N-(R)-1-Aza-bicyclo[2.2.2]oct-3-yl-4-[^125I]iodo-benzamide], the “Uptake values within the brain” value in data set [1] (mouse brain, FIG. 1) is less than 0.4 % ID/g. Besides, the “Uptake/retention in target tissue (hippocampus)” value in data set [1] was “retention within hippocampus, a target tissue, was demonstrated”. Besides, at α7-nAChR (10 mg/kg nicotine 5 min before radiotracer, mice killed at 30 min, FIG. 2), the “Blocking study (nicotine blockade)” value was “failed to demonstrate regionally-selective blockade, although significantly decreased radiotracer uptake was demonstrated in the regions studied”.
Consider `[125I]c1occc1-c1cnc2c(c1)CC1(CN3CCC1CC3)O2` (stereo not drawn) [Compound 4, (2′R)-5′-(2-[^125I]iodo-3-furanyl)spiro[1-azabicyclo[2.2.2]octane]-3,2′(3′H)-furo[2,3-b]pyridine], for which the pKi at rat α7 nAChR (setting [2]) was 9.59. Further, in data set [1] (mouse brain), the “Uptake within the brain (in words)” value is “gained ready access to the brain”. Moreover, the “Uptake/retention in target tissue (hippocampus)” value in data set [1] is listed as “modest but higher uptake in target tissue (hippocampus) than within other brain substructures”. Besides, the Receptor blockade study result at α7-nAChR (unlabeled 4 (0.01-10 mg/kg) 5 min before radiotracer, mice killed at 60 min, FIG. 4) is “significant blockade in the target tissue and slightly less so in cortex”.
